# Measured values: PubChem BioAssay (NCI)
#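 Briefly, cells in 96-well plates were exposed to five compound concentrations for 48 h, and endpoints were estimated by linear interpolation. Abbreviation: GI50, concentration required for 50% inhibition of growth. TGI: concentration producing complete growth inhibition.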
# How the values were obtained:
# Assay in all cases: NCI anticancer screen, dose series, 48 h
# K-562 leukemia = test system: K-562 leukemia
# EKVX NSCLC = test system: EKVX NSCLC
# SNB-75 CNS = test system: SNB-75 CNS
# RPMI-8226 leukemia = test system: RPMI-8226 leukemia
# HL-60(TB) leukemia = test system: HL-60(TB) leukemia
# SNB-19 CNS = test system: SNB-19 CNS
# DU-145 prostate = test system: DU-145 prostate
# 786-0 renal = test system: 786-0 renal
# SR leukemia = test system: SR leukemia
# SK-MEL-2 melanoma = test system: SK-MEL-2 melanoma
# M14 melanoma = test system: M14 melanoma
Compound,TGI (K-562 leukemia) [µM],TGI (EKVX NSCLC) [µM],TGI (SNB-75 CNS) [µM],TGI (RPMI-8226 leukemia) [µM],TGI (HL-60(TB) leukemia) [µM],TGI (SNB-19 CNS) [µM],TGI (DU-145 prostate) [µM],TGI (786-0 renal) [µM],TGI (SR leukemia) [µM],TGI (SK-MEL-2 melanoma) [µM],TGI (M14 melanoma) [µM],GI50 (K-562 leukemia) [µM],GI50 (RPMI-8226 leukemia) [µM],GI50 (HL-60(TB) leukemia) [µM],GI50 (SR leukemia) [µM]
CCOC(=O)C1=NNC(C(=O)c2ccccc2)C1c1ccccc1 (stereo not drawn),> 100,36.6,16.7,> 47.2,2.86,27.8,25.9,6.3,> 100,31.2,3.75,–,–,–,–
Nc1ncc2c(n1)-c1ccccc1OC2N1CCOCC1 (stereo not drawn),> 100,> 100,> 100,> 100,> 100,> 100,> 100,> 100,> 100,> 100,> 100,–,–,–,–
Cc1ccc(O)c(C(c2cc(C)ccc2O)c2cc([N+](=O)[O-])ccc2O)c1,> 100,32.3,21.2,50.6,11.7,–,50.3,33.9,39.1,28.2,24.5,–,–,–,–
Cc1ccc(O)c(C2=NNC(c3cccc(Cl)c3)C2)c1 (stereo not drawn),> 100,> 100,–,88.3,> 100,55.8,> 100,> 100,> 100,94.1,> 100,–,–,–,–
Cc1cc(S(=O)(=O)NC2=NCC(C)(C)CN2)c(S)cc1Cl,80.5,> 100,> 100,–,62.1,> 100,> 100,> 100,> 100,> 100,> 100,–,–,–,–
Cc1ccc(CN2CCN(Cc3ccc(C)o3)C(C)C2)o1 (stereo not drawn),> 100,> 100,> 100,> 100,> 100,> 100,> 100,> 100,> 100,> 100,> 100,–,–,–,–
COc1cc(-c2ccccc2)cn2c1nc1ccccc12,67.1,–,43.2,62,53.2,69.3,> 100,34.7,99.6,44,43.4,–,–,–,–
COc1ccc2[nH]c3c(O)c(-c4c(C)cc5c([nH]c6ccc(OC)cc65)c4O)c(C)cc3c2c1,8.13,7.8,7.18,7.45,4.96,8.72,7.97,8.62,8.34,10.7,7.99,4.04,3.61,0.0321,3.97
CC1(C)CCC[C@@]2(C)C1CC[C@@]1(CO1)[C@@H]2/C=C\C(C=O)CC=O (stereo partly drawn),> 69.5,> 100,> 100,> 28.1,> 74.4,> 100,> 100,> 100,99.2,> 100,> 100,–,–,–,–
COC1(OC)C2C=CC1C([C@](C)(N)CO)C2 (stereo partly drawn),> 100,> 100,> 100,–,> 100,> 100,> 100,> 100,> 100,–,> 100,–,–,–,–
CN1N=C(c2ccccc2)c2cc(Cl)ccc2N=C1N/N=C/c1ccc(N(C)C)cc1,> 100,> 100,> 100,> 100,> 100,> 100,> 100,> 100,> 100,–,> 100,–,–,–,–
CCOC(=O)c1csc(-c2cn(C)c3c2C(=O)C(OC)=CC3=O)n1,> 100,> 100,> 83.4,> 80.1,> 100,> 100,91.3,> 100,> 100,> 78,63.3,–,–,–,–
O=Cc1ccc(-c2ccc(S(=O)(=O)O)cc2)o1,> 100,> 100,–,> 100,> 100,> 100,> 100,> 100,> 100,> 100,> 100,–,–,–,–
N[C@H]1CCN(c2c(F)cc3c(=O)c(C(=O)O)cn4c3c2Oc2c-4ccc3c2ccc2ccccc23)C1,–,> 24.7,–,4.11,> 85.6,> 100,> 62.7,> 36.6,> 100,> 100,> 100,–,–,–,0.283
O=C(O)CCC(NC(=O)c1ccc(CNc2nc3cc(C(F)(F)F)ccc3nc2C(=O)O)cc1)C(=O)O (stereo not drawn),> 100,> 100,> 100,–,> 100,> 100,> 100,> 100,> 100,> 100,> 100,–,–,–,–
COc1ccc(NC(/C(C(=O)C(=O)/C=C(\O)c2ccccc2)=C(\O)c2ccccc2)c2ccc(OC)cc2)cc1 (stereo not drawn),> 100,50.9,51.9,69.1,75.3,> 100,> 100,> 100,> 100,89,> 100,–,–,–,–
CC[C@]1(Cc2ccc(OC)c(OC)c2)C=[N+]([O-])O[C@H](OCc2ccccc2)[C@@H]1OC(C)=O,56.8,67.5,> 100,57.9,36.3,> 100,93.5,> 100,48.2,79.3,> 100,–,–,–,–
Cc1nn(C(=O)c2ccc(Cl)cc2)c2c1C(c1ccc(Cl)cc1)SC(N)=N2 (stereo not drawn),> 10,> 10,> 10,> 10,> 10,> 10,> 10,> 10,> 10,> 10,> 10,–,–,–,–
Nn1c(CCCCCCCCc2n[nH]c(=S)n2N)n[nH]c1=S,> 100,> 100,> 100,> 100,> 100,> 100,> 100,> 100,> 100,> 100,> 100,–,–,–,–
